Data published in ChEMBL document CHEMBL2331217, “Evolvosides C–E, flavonol-4'-O-triglycosides from evolvulus alsinoides and their anti-stress activity [corrected]” (2013).

Columns and labels:
Type in all cases: functional
Rattus norvegicus [1] = experiment: Anti-stress activity in Sprague-Dawley rat assessed as change in acute stress-induced plasma corticosterone level at 40 mg/kg, po qd for 3 days prior to acute stress induction measured after 150 mins by HPLC/UV analysis (reference value: 511.2 +/- 23.2 ng/ml)
Rattus norvegicus [2] = experiment: Anti-stress activity in Sprague-Dawley rat assessed as change in acute stress-induced plasma creatine kinase level at 40 mg/kg, po qd for 3 days prior to acute stress induction measured after 150 mins (reference value: 1018 +/- 31.43 mg/dl)
Rattus norvegicus [3] = experiment: Anti-stress activity in Sprague-Dawley rat assessed as change in acute stress-induced plasma glucose level at 40 mg/kg, po qd for 3 days prior to acute stress induction measured after 150 mins (reference value: 154.7 +/- 4.38 mg/dl)
Rattus norvegicus [4] = experiment: Anti-stress activity in Sprague-Dawley rat assessed as change in acute stress-induced adrenal gland weight at 40 mg/kg, po qd for 3 days prior to acute stress induction measured after 150 mins (reference value: 10.2 +/- 0.84 mg/kg)

Row | Compound | Activity (Rattus norvegicus [1]) [ng/mL] | Activity (Rattus norvegicus [2]) [mg/dL] | Activity (Rattus norvegicus [3]) [mg/dL] | Activity (Rattus norvegicus [4]) [mg/kg]
1 | COc1cc(O)c2c(=O)c(O)c(-c3ccc(O[C@@H]4O[C@H](CO[C@@H]5O[C@@H](C)[C@H](O)[C@@H](O)[C@H]5O[C@@H]5O[C@H](CO)[C@@H](O)[C@H](O)[C@H]5O)[C@@H](O)[C@H](O)[C@H]4O)cc3)oc2c1 [EVOLVOSIDE D] | 241.7 | 405.4 | 95.13 | 8.23
2 | C[C@@H]1O[C@@H](OC[C@H]2O[C@@H](Oc3ccc(-c4oc5cc(O)cc(O)c5c(=O)c4O)cc3)[C@H](O)[C@@H](O)[C@@H]2O)[C@H](O)[C@H](O)[C@H]1O | 239.2 | 521.4 | 105.13 | 8.47
3 | C[C@@H]1O[C@@H](OC[C@H]2O[C@@H](Oc3ccc(-c4oc5cc(O)cc(O)c5c(=O)c4O)cc3)[C@H](O)[C@@H](O)[C@@H]2O)[C@H](O[C@@H]2O[C@H](CO)[C@@H](O)[C@H](O)[C@H]2O)[C@H](O)[C@H]1O [EVOLVOSIDE C] | 233.3 | 385.3 | 80.17 | 7.11
4 | O=c1cc(-c2ccc(O)cc2)oc2c([C@@H]3O[C@H](CO)[C@@H](O)[C@H](O)[C@H]3O)c(O)cc(O)c12 | 439 | 822 | 92.1 | 9.78
5 | COc1cc(OC)c2c(=O)c(O)c(-c3ccc(O[C@@H]4O[C@H](CO[C@@H]5O[C@@H](C)[C@H](O)[C@@H](O)[C@H]5O[C@@H]5O[C@H](CO)[C@@H](O)[C@H](O)[C@H]5O)[C@@H](O)[C@H](O)[C@H]4O)cc3)oc2c1 [EVOLVOSIDE E] | 252.6 | 413.7 |  | 
6 | O=c1c(O)c(-c2ccc(O[C@@H]3O[C@H](CO)[C@@H](O)[C@H](O)[C@H]3O[C@@H]3O[C@H](CO)[C@@H](O)[C@H](O)[C@H]3O)cc2)oc2cc(O)cc(O)c12 | 458.2 | 1078 | 113.1 | 10.91
